These results are taken from ChEMBL document CHEMBL1145536, “Low-oxygen-recovery assay for high-throughput screening of compounds against nonreplicating Mycobacterium tuberculosis” (2007).

Values after ≈ are worked out from the molar mass of the structure shown.

Common to all, as to format: functional
Assay [1] relates to Mycobacterium tuberculosis. As to the kind of experiment: Antimicrobial activity against non replicating persistence Mycobacterium tuberculosis H37Rv in aerobic condition assessed as bacterial density after 7 days. The conditions noted are these: 168 h.
Assay [2] concerns Mycobacterium tuberculosis. As to the kind of experiment: Antimicrobial activity against non replicating persistence Mycobacterium tuberculosis H37Rv in anaerobic condition assessed as relative light unit after 11 days by LORA assay. Particulars: 264 h.
Assay [3] deals with Mycobacterium tuberculosis. As to the kind of experiment: Antimicrobial activity against non replicating persistence Mycobacterium tuberculosis H37Rv in aerobic condition assessed by relative light units after 7 days. The conditions noted are these: 168 h.
For assay [4], the system named is Mycobacterium tuberculosis. As to the kind of experiment: Antimicrobial activity against non replicating persistence Mycobacterium tuberculosis H37Rv in anaerobic condition assessed as bacterial density after 10 days. Particulars: 240 h.

With `NC(=O)c1cnccn1` [PYRAZINAMIDE], the MIC in assay [1] was above 128 µM; in assay [2], above 128 µM; in assay [3], above 128 µM; in assay [4], 96 µM (≈ 11.8 µg/mL).
As for `O=C1OCCN1/N=C/c1ccc([N+](=O)[O-])o1` [FURAZOLIDONE], the MIC came out at 1 µM (≈ 0.225 µg/mL) in assay [1], 9.7 µM (≈ 2.18 µg/mL) in assay [2], 77.4 µM (≈ 17.4 µg/mL) in assay [3] and 44.8 µM (≈ 10.1 µg/mL) in assay [4].
Take `CN(C)c1ccc(O)c2c1C[C@H]1C[C@H]3[C@H](N(C)C)C(O)=C(C(N)=O)C(=O)[C@@]3(O)C(O)=C1C2=O` [MINOCYCLINE]: the MIC in assay [1] stood at 7.2 µM (≈ 3.29 µg/mL); in assay [2] it was 53.5 µM (≈ 24.5 µg/mL); in assay [3] it was 7.1 µM (≈ 3.25 µg/mL); in assay [4], 38.4 µM (≈ 17.6 µg/mL).
As for `CN[C@H](CC(C)C)C(=O)N[C@H]1C(=O)N[C@@H](CC(N)=O)C(=O)N[C@H]2C(=O)N[C@H]3C(=O)N[C@H](C(=O)N[C@H](C(=O)O)c4cc(O)cc(O)c4-c4cc3ccc4O)[C@H](O)c3ccc(c(Cl)c3)Oc3cc2cc(c3O[C@@H]2O[C@H](CO)[C@@H](O)[C@H](O)[C@H]2O[C@H]2C[C@](C)(N)[C@H](O)[C@H](C)O2)Oc2ccc(cc2Cl)[C@H]1O` [VANCOMYCIN], the MIC in assay [1] was 15.5 µM (≈ 22.5 µg/mL); in assay [2] it was above 128 µM; in assay [3], above 128 µM; in assay [4], 128 µM (≈ 186 µg/mL).
In the case of `Cc1ncc([N+](=O)[O-])n1CCO` [METRONIDAZOLE], the MIC is above 128 µM in assay [1], above 128 µM in assay [2], above 128 µM in assay [3] and 40 µM (≈ 6.85 µg/mL) in assay [4].
Take `O=[N+]([O-])c1cn2c(n1)OC[C@@H](OCc1ccc(OC(F)(F)F)cc1)C2` [PRETOMANID]: the MIC was determined as 0.7 µM (≈ 0.251 µg/mL) in assay [1], 3.1 µM (≈ 1.11 µg/mL) in assay [2], 0.6 µM (≈ 0.216 µg/mL) in assay [3] and 12 µM (≈ 4.31 µg/mL) in assay [4].
As to `CCC[C@@H]1C[C@@H](C(=O)N[C@@H]([C@H]2O[C@H](SC)[C@H](O)[C@@H](O)[C@H]2O)[C@@H](C)O)N(C)C1` [LINCOMYCIN], the MIC in assay [1] is 104 µM (≈ 42.1 µg/mL); in assay [2] it was above 128 µM; in assay [3], above 128 µM; in assay [4] it was above 128 µM.
Take `CC[C@H]1OC(=O)[C@H](C)[C@@H](O[C@H]2C[C@@](C)(OC)[C@@H](O)[C@H](C)O2)[C@H](C)[C@@H](O[C@@H]2O[C@H](C)C[C@H](N(C)C)[C@H]2O)[C@](C)(OC)C[C@@H](C)C(=O)[C@H](C)[C@@H](O)[C@]1(C)O` [CLARITHROMYCIN]: the MIC in assay [1] is 1.6 µM (≈ 1.2 µg/mL); in assay [2] it was above 128 µM; in assay [3] it was 13.4 µM (≈ 10 µg/mL); in assay [4] it was 18.7 µM (≈ 14 µg/mL).
For the compound `CN[C@@H]1[C@H](O[C@H]2[C@H](O[C@H]3[C@H](O)[C@@H](O)[C@H](N=C(N)N)[C@@H](O)[C@@H]3N=C(N)N)O[C@@H](C)[C@]2(O)C=O)O[C@@H](CO)[C@H](O)[C@H]1O` (stereo in doubt) [STREPTOMYCIN], the MIC in assay [1] is at most 0.5 µM; in assay [2], 1.2 µM (≈ 0.698 µg/mL); in assay [3], 0.5 µM (≈ 0.291 µg/mL); in assay [4], 0.8 µM (≈ 0.465 µg/mL).
On to `O=C(Nc1ccc([N+](=O)[O-])cc1Cl)c1cc(Cl)ccc1O` [NICLOSAMIDE], for which the MIC is at most 0.5 µM in assay [1], at most 0.5 µM in assay [2], at most 0.5 µM in assay [3] and 0.9 µM (≈ 0.294 µg/mL) in assay [4].
For the compound `COc1c(N2C[C@@H]3CCCN[C@@H]3C2)c(F)cc2c(=O)c(C(=O)O)cn(C3CC3)c12` [MOXIFLOXACIN], the MIC is at most 0.5 µM in assay [1], 15.9 µM (≈ 6.38 µg/mL) in assay [2], 0.5 µM (≈ 0.201 µg/mL) in assay [3] and at most 0.5 µM in assay [4].
For `CC[C@H]1OC(=O)[C@H](C)[C@@H](O[C@H]2C[C@@](C)(OC)[C@@H](O)[C@H](C)O2)[C@H](C)[C@@H](O[C@@H]2O[C@H](C)C[C@H](N(C)C)[C@H]2O)[C@](C)(OC)C[C@@H](C)C(=O)[C@H](C)[C@@H]2N(NCCCc3ccnc4ccccc34)C(=O)O[C@@]21C`, the MIC in assay [1] amounted to 1.8 µM (≈ 1.72 µg/mL); in assay [2] it was 2.7 µM (≈ 2.58 µg/mL); in assay [3] it was 0.8 µM (≈ 0.766 µg/mL); in assay [4] it was 1.3 µM (≈ 1.24 µg/mL).
On to `C[C@]1(Cn2ccnn2)[C@H](C(=O)O)N2C(=O)C[C@H]2S1(=O)=O` [TAZOBACTAM], for which the MIC in assay [1], in assay [2], in assay [3] and in assay [4] was above 128 µM each time.
`O=C(O)c1cn(C2CC2)c2cc(N3CCNCC3)c(F)cc2c1=O` [CIPROFLOXACIN]: the MIC was at most 0.5 µM in assay [1], above 128 µM in assay [2], 1.5 µM (≈ 0.497 µg/mL) in assay [3] and 33 µM (≈ 10.9 µg/mL) in assay [4].
On the same counts, the results for `CC(=O)N1CCN(c2ccc(OC[C@H]3CO[C@](Cn4ccnc4)(c4ccc(Cl)cc4Cl)O3)cc2)CC1` [KETOCONAZOLE] are 7.6 µM (≈ 4.04 µg/mL), 53 µM (≈ 28.2 µg/mL), 13.9 µM (≈ 7.39 µg/mL) and 53.3 µM (≈ 28.3 µg/mL).
On the same counts, the results for `CO[C@H]1/C=C/O[C@@]2(C)Oc3c(C)c(O)c4c(O)c(c(/C=N/N5CCN(C)CC5)c(O)c4c3C2=O)NC(=O)/C(C)=C\C=C\[C@H](C)[C@H](O)[C@@H](C)[C@@H](O)[C@@H](C)[C@H](OC(C)=O)[C@@H]1C` [RIFAMPIN] are at most 0.5 µM, 1.8 µM (≈ 1.48 µg/mL), 0.5 µM (≈ 0.411 µg/mL) and at most 0.5 µM.
In the case of `CC(C)/N=c1\cc2n(-c3ccc(Cl)cc3)c3ccccc3nc-2cc1Nc1ccc(Cl)cc1` [CLOFAZIMINE], the MIC in assay [1] is 0.7 µM (≈ 0.331 µg/mL); in assay [2], 1.5 µM (≈ 0.71 µg/mL); in assay [3], at most 0.5 µM; in assay [4] it was 0.8 µM (≈ 0.379 µg/mL).
On to `CO[C@H]1/C=C/O[C@@]2(C)Oc3c(C)c(O)c4c(c3C2=O)C2=NC3(CCN(CC(C)C)CC3)NC2=C(NC(=O)/C(C)=C\C=C\[C@H](C)[C@H](O)[C@@H](C)[C@@H](O)[C@@H](C)[C@H](OC(C)=O)[C@@H]1C)C4=O` [RIFABUTIN], for which the MIC in assay [1] was at most 0.5 µM; in assay [2], at most 0.5 µM; in assay [3], 0.5 µM (≈ 0.424 µg/mL); in assay [4], at most 0.5 µM.
`COc1cc(Cc2cnc(N)nc2N)cc(OC)c1OC` [TRIMETHOPRIM]: the MIC in assay [1] is above 128 µM; in assay [2] it was above 128 µM; in assay [3] it was above 128 µM; in assay [4] it was 83.2 µM (≈ 24.2 µg/mL).
For `N[C@@H]1CONC1=O` [CYCLOSERINE], the MIC is 60.5 µM (≈ 6.18 µg/mL) in assay [1], above 128 µM in assay [2], 63.7 µM (≈ 6.5 µg/mL) in assay [3] and 125 µM (≈ 12.7 µg/mL) in assay [4].
For `CC[C@@H](CO)NCCN[C@@H](CC)CO` [ETHAMBUTOL], the MIC in assay [1] is 1 µM (≈ 0.204 µg/mL); in assay [2], above 128 µM; in assay [3] it was 1.8 µM (≈ 0.368 µg/mL); in assay [4], above 128 µM.
For `CC1COc2c(N3CCN(C)CC3)c(F)cc3c(=O)c(C(=O)O)cn1c23` (stereo not given) [OFLOXACIN], the MIC in assay [1] is 0.7 µM (≈ 0.253 µg/mL); in assay [2], above 128 µM; in assay [3] it was 2.3 µM (≈ 0.831 µg/mL); in assay [4], 24.2 µM (≈ 8.75 µg/mL).
As for `Nc1ccc(C(=O)O)c(O)c1` [AMINOSALICYLIC ACID], the MIC was 12.3 µM (≈ 1.88 µg/mL) in assay [1], above 128 µM in assay [2], 12.3 µM (≈ 1.88 µg/mL) in assay [3] and above 128 µM in assay [4].
With `NNC(=O)c1ccncc1` [ISONIAZID], the MIC in assay [1] is at most 0.5 µM; in assay [2], above 128 µM; in assay [3] it was at most 0.5 µM; in assay [4], above 128 µM.
With `CC(=O)NC[C@H]1CN(c2ccc(N3CCOCC3)c(F)c2)C(=O)O1` [LINEZOLID], the MIC in assay [1] was 1.9 µM (≈ 0.641 µg/mL); in assay [2], 65.2 µM (≈ 22 µg/mL); in assay [3] it was 6.3 µM (≈ 2.13 µg/mL); in assay [4], above 128 µM.
As for `CC(=O)O[C@H]1C[C@@]2(C)[C@@H](C[C@@H](O)[C@H]3[C@@]4(C)CC[C@@H](O)[C@@H](C)[C@@H]4CC[C@@]32C)/C1=C(\CCC=C(C)C)C(=O)O` [FUSIDIC ACID], the minimal inhibitory concentration (MIC) in assay [1] was determined as 7 µM (≈ 3.62 µg/mL); in assay [2], 57.7 µM (≈ 29.8 µg/mL); in assay [3], 15.8 µM (≈ 8.16 µg/mL); in assay [4], 7.2 µM (≈ 3.72 µg/mL).
As for `CCC[C@@H]1C[C@@H](C(=O)N[C@H](C(C)Cl)[C@H]2O[C@H](SC)[C@H](O)[C@@H](O)[C@H]2O)N(C)C1` (single isomer, unassigned) [CLINDAMYCIN], the MIC in assay [1], in assay [2], in assay [3] and in assay [4] was above 128 µM in each case.
In the case of `O=C1CN(/N=C/c2ccc([N+](=O)[O-])o2)C(=O)N1` [NITROFURANTOIN], the MIC was 0.9 µM (≈ 0.214 µg/mL) in assay [1], 63.9 µM (≈ 15.2 µg/mL) in assay [2], above 128 µM in assay [3] and 32 µM (≈ 7.62 µg/mL) in assay [4].
Regarding `NCC[C@H](O)C(=O)N[C@@H]1C[C@H](N)[C@@H](O[C@H]2O[C@H](CN)[C@@H](O)[C@H](O)[C@H]2O)[C@H](O)[C@H]1O[C@H]1O[C@H](CO)[C@@H](O)[C@H](N)[C@H]1O` [AMIKACIN], the MIC is at most 0.5 µM in assay [1], at most 0.5 µM in assay [2], 0.5 µM (≈ 0.293 µg/mL) in assay [3] and at most 0.5 µM in assay [4].
For `CC(=O)Nc1ccc(/C=N/NC(N)=S)cc1` [AMITHIOZONE], the MIC is 31.3 µM (≈ 7.4 µg/mL) in assay [1], above 128 µM in assay [2], 14.6 µM (≈ 3.45 µg/mL) in assay [3] and 70.4 µM (≈ 16.6 µg/mL) in assay [4].

Broadly, the MIC is the smallest concentration in the dilution series that meets the test's criterion for growth inhibition.
